# Patent US20120029187A1, “HALOALKYLSULFONANILIDE DERIVATIVE” (Nissan Chemical Industries, Ltd., priority 2009, published 2012)
# Columns and labels:
# Assay type in all cases: in vivo
# [1] = tested on: barnyardgrass; experiment: Test Example 4: herbicidal effect in foliage treatment; conditions: three weeks after application
# Outline: (§1)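 Visual herbicidal scores on a graded scale were recorded three weeks after foliar application. Compounds went on as diluted emulsifiable concentrates at predetermined g/a to plants grown 14 days in a 25 to 30° C greenhouse.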
# [2] = tested on: common ragweed; experiment: as above; conditions: three weeks after application
# Outline: as §1
# [3] = tested on: common lambsquater; experiment: as above; conditions: three weeks after application
# Outline: as §1
# [4] = tested on: Italian ryegrass; experiment: as above; conditions: three weeks after application
# Outline: as §1
# [5] = tested on: velvetleaf; experiment: as above; conditions: three weeks after application
# Outline: as §1
# [6] = tested on: common chickweed; experiment: as above; conditions: three weeks after application
# Outline: as §1
# [7] = tested on: beadstraw; experiment: as above; conditions: dose 6.3 g/a, three weeks after application
# Outline: as §1
# [8] = tested on: water foxtail; experiment: as above; conditions: three weeks after application
# Outline: as §1
# [9] = tested on: giant foxtail; experiment: as above; conditions: three weeks after application
# Outline: as §1
# [10] = tested on: posumbu knotweed; experiment: as above; conditions: three weeks after application
# Outline: as §1
# [11] = tested on: redroot pigweed; experiment: as above; conditions: three weeks after application
# Outline: as §1
# [12] = tested on: large crabgrass; experiment: as above; conditions: three weeks after application
# Outline: as §1
# [13] = tested on: barnyardgrass; experiment: Test Example 3: herbicidal effects in soil treatment; conditions: dose 3.2 g/a
# Outline: (§2)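 Seeds were sown in sterilized diluvial soil and covered with about 1.5 cm of soil. Compounds, formulated as emulsifiable concentrates and diluted with water, were sprayed evenly over the soil surface at set doses in g/a. Herbicidal effect was scored on a rating scale three weeks later.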
# [14] = tested on: common ragweed; experiment: as above; conditions: dose 3.2 g/a
# Outline: as §2
# [15] = tested on: common lambsquater; experiment: as above; conditions: dose 3.2 g/a
# Outline: as §2
# [16] = tested on: Italian ryegrass; experiment: as above; conditions: dose 3.2 g/a
# Outline: as §2
# [17] = tested on: velvetleaf; experiment: as above; conditions: dose 3.2 g/a
# Outline: as §2
# [18] = tested on: common chickweed; experiment: as above; conditions: dose 3.2 g/a
# Outline: as §2
# [19] = tested on: water foxtail; experiment: as above; conditions: dose 3.2 g/a
# Outline: as §2
# [20] = tested on: giant foxtail; experiment: as above; conditions: dose 3.2 g/a
# Outline: as §2
# [21] = tested on: posumbu knotweed; experiment: as above; conditions: dose 3.2 g/a
# Outline: as §2
# [22] = tested on: redroot pigweed; experiment: as above; conditions: dose 3.2 g/a
# Outline: as §2
# [23] = tested on: large crabgrass; experiment: as above; conditions: dose 3.2 g/a
# Outline: as §2
# [24] = tested on: barnyardgrass; experiment: Test Example 1: herbicidal effects in preemergence treatment under submerged conditions; conditions: dose 2.52 g/a
# Outline: (§3)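 Alluvial soil was flooded to 4 cm, sown with barnyardgrass, bulrush and ducksalad, and planted with 2.5-leaf rice seedlings. On the seeding day, water-diluted emulsifiable concentrates were applied to the water surface at set doses (g/a). After three weeks in a 25 to 30° C. greenhouse, mortality was scored 0–5.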
# [25] = tested on: bulrush; experiment: as above; conditions: dose 2.52 g/a
# Outline: as §3
# [26] = tested on: ducksalad; experiment: as above; conditions: dose 2.52 g/a
# Outline: as §3
# [27] = tested on: barnyardgrass; experiment: Test Example 2: herbicidal effects during the vegetation period under submerged conditions; conditions: treatment during the vegetation period under submerged conditions; dose 2.52 g/a
# Outline: (§4)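 Barnyardgrass, bulrush and ducksalad were co-sown in alluvial soil flooded to 4 cm and grown in a greenhouse at 25 to 30° C. At the 1- or 2-leaf stage, water-diluted emulsifiable concentrates went onto the water surface at set doses (g/a). Herbicidal effect was scored three weeks later on a graded scale.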
# [28] = tested on: bulrush; experiment: as above; conditions: treatment during the vegetation period under submerged conditions; dose 2.52 g/a
# Outline: as §4
# [29] = tested on: ducksalad; experiment: as above; conditions: treatment during the vegetation period under submerged conditions; dose 2.52 g/a
# Outline: as §4
# [30] = tested on: transplanted rice; experiment: Test Example 1: preemergence treatment under submerged conditions, effect on crop; conditions: dose 2.52 g/a
# Outline: as §3
SMILES,"A: barnyardgrass, herbicidal effect (evaluation scale 0-5) [13]","J: common ragweed, herbicidal effect (evaluation scale 0-5) [14]","L: common lambsquater, herbicidal effect (evaluation scale 0-5) [15]","H: Italian ryegrass, herbicidal effect (evaluation scale 0-5) [16]","I: velvetleaf, herbicidal effect (evaluation scale 0-5) [17]","N: common chickweed, herbicidal effect (evaluation scale 0-5) [18]","G: water foxtail, herbicidal effect (evaluation scale 0-5) [19]","E: giant foxtail, herbicidal effect (evaluation scale 0-5) [20]","M: posumbu knotweed, herbicidal effect (evaluation scale 0-5) [21]","K: redroot pigweed, herbicidal effect (evaluation scale 0-5) [22]","D: large crabgrass, herbicidal effect (evaluation scale 0-5) [23]","A: barnyardgrass, herbicidal effect (evaluation scale 0-5) [24]","B: bulrush, herbicidal effect (evaluation scale 0-5) [25]","C: ducksalad, herbicidal effect (evaluation scale 0-5) [26]","A: barnyardgrass, herbicidal effect (evaluation scale 0-5) [27]","B: bulrush, herbicidal effect (evaluation scale 0-5) [28]","C: ducksalad, herbicidal effect (evaluation scale 0-5) [29]","A: barnyardgrass, herbicidal effect ([1]; dose 3.2 g/a)","J: common ragweed, herbicidal effect ([2]; dose 3.2 g/a)","L: common lambsquater, herbicidal effect ([3]; dose 3.2 g/a)",other results
CCOC(=O)N(c1ccccc1CN1CC(C)OCC1=O)S(=O)(=O)C(F)(F)F (stereo not drawn) [Compound I-7],5 (mortality of 90% or above (nearly complete death)),5 (mortality of 90% or above (nearly complete death)),5 (mortality of 90% or above (nearly complete death)),5 (mortality of 90% or above (nearly complete death)),5 (mortality of 90% or above (nearly complete death)),5 (mortality of 90% or above (nearly complete death)),5 (mortality of 90% or above (nearly complete death)),5 (mortality of 90% or above (nearly complete death)),5 (mortality of 90% or above (nearly complete death)),5 (mortality of 90% or above (nearly complete death)),5 (mortality of 90% or above (nearly complete death)),5 (mortality of 90% or above (nearly complete death)),5 (mortality of 90% or above (nearly complete death)),5 (mortality of 90% or above (nearly complete death)),5 (mortality of 90% or above (nearly complete death)),5 (mortality of 90% or above (nearly complete death)),5 (mortality of 90% or above (nearly complete death)),–,–,–,"A: barnyardgrass, herbicidal effect ([1]; dose 6.3 g/a): 5 (mortality of 90% or above (nearly complete death)); J: common ragweed, herbicidal effect ([2]; dose 6.3 g/a): 4 (mortality of at least 70% and less than 90%); L: common lambsquater, herbicidal effect ([3]; dose 6.3 g/a): 4 (mortality of at least 70% and less than 90%); H: Italian ryegrass, herbicidal effect ([4]; dose 6.3 g/a): 5 (mortality of 90% or above (nearly complete death)); I: velvetleaf, herbicidal effect ([5]; dose 6.3 g/a): 5 (mortality of 90% or above (nearly complete death)); N: common chickweed, herbicidal effect ([6]; dose 6.3 g/a): 5 (mortality of 90% or above (nearly complete death)); O: beadstraw, herbicidal effect [7]: 5 (mortality of 90% or above (nearly complete death)); G: water foxtail, herbicidal effect ([8]; dose 6.3 g/a): 5 (mortality of 90% or above (nearly complete death)); E: giant foxtail, herbicidal effect ([9]; dose 6.3 g/a): 5 (mortality of 90% or above (nearly complete death)); M: posumbu knotweed, herbicidal effect ([10]; dose 6.3 g/a): 4 (mortality of at least 70% and less than 90%); K: redroot pigweed, herbicidal effect ([11]; dose 6.3 g/a): 1 (mortality of at least 5% and less than 20%); D: large crabgrass, herbicidal effect ([12]; dose 6.3 g/a): 5 (mortality of 90% or above (nearly complete death))"
CCOC(=O)N(c1ccccc1CN1COC(C)(C2CC2)CC1=O)S(=O)(=O)C(F)(F)F (stereo not drawn) [II-45],5 (mortality of 90% or above (nearly complete death)),4 (mortality of at least 70% and less than 90%),0 (mortality of less than 5% (almost ineffective)),4 (mortality of at least 70% and less than 90%),0 (mortality of less than 5% (almost ineffective)),3 (mortality of at least 40% and less than 70%),5 (mortality of 90% or above (nearly complete death)),4 (mortality of at least 70% and less than 90%),4 (mortality of at least 70% and less than 90%),0 (mortality of less than 5% (almost ineffective)),4 (mortality of at least 70% and less than 90%),5 (mortality of 90% or above (nearly complete death)),5 (mortality of 90% or above (nearly complete death)),5 (mortality of 90% or above (nearly complete death)),5 (mortality of 90% or above (nearly complete death)),5 (mortality of 90% or above (nearly complete death)),5 (mortality of 90% or above (nearly complete death)),4 (mortality of at least 70% and less than 90%),3 (mortality of at least 40% and less than 70%),3 (mortality of at least 40% and less than 70%),"H: Italian ryegrass, herbicidal effect ([4]; dose 3.2 g/a): 4 (mortality of at least 70% and less than 90%); I: velvetleaf, herbicidal effect ([5]; dose 3.2 g/a): 2 (mortality of at least 20% and less than 40%); N: common chickweed, herbicidal effect ([6]; dose 3.2 g/a): 3 (mortality of at least 40% and less than 70%); G: water foxtail, herbicidal effect ([8]; dose 3.2 g/a): 4 (mortality of at least 70% and less than 90%); E: giant foxtail, herbicidal effect ([9]; dose 3.2 g/a): 2 (mortality of at least 20% and less than 40%); M: posumbu knotweed, herbicidal effect ([10]; dose 3.2 g/a): 3 (mortality of at least 40% and less than 70%); K: redroot pigweed, herbicidal effect ([11]; dose 3.2 g/a): 0 (mortality of less than 5% (almost ineffective)); D: large crabgrass, herbicidal effect ([12]; dose 3.2 g/a): 3 (mortality of at least 40% and less than 70%); a: transplanted rice, effect on crop (evaluation scale 0-5) [30]: 0 (mortality of less than 5% (almost ineffective))"
CCOC(=O)N(c1ccccc1CN1COC(C)(c2ccccc2)CC1=O)S(=O)(=O)C(F)(F)F (stereo not drawn) [II-58],0 (mortality of less than 5% (almost ineffective)),0 (mortality of less than 5% (almost ineffective)),0 (mortality of less than 5% (almost ineffective)),4 (mortality of at least 70% and less than 90%),0 (mortality of less than 5% (almost ineffective)),0 (mortality of less than 5% (almost ineffective)),5 (mortality of 90% or above (nearly complete death)),0 (mortality of less than 5% (almost ineffective)),4 (mortality of at least 70% and less than 90%),0 (mortality of less than 5% (almost ineffective)),0 (mortality of less than 5% (almost ineffective)),5 (mortality of 90% or above (nearly complete death)),5 (mortality of 90% or above (nearly complete death)),5 (mortality of 90% or above (nearly complete death)),4 (mortality of at least 70% and less than 90%),5 (mortality of 90% or above (nearly complete death)),5 (mortality of 90% or above (nearly complete death)),3 (mortality of at least 40% and less than 70%),3 (mortality of at least 40% and less than 70%),1 (mortality of at least 5% and less than 20%),"H: Italian ryegrass, herbicidal effect ([4]; dose 3.2 g/a): 4 (mortality of at least 70% and less than 90%); I: velvetleaf, herbicidal effect ([5]; dose 3.2 g/a): 0 (mortality of less than 5% (almost ineffective)); N: common chickweed, herbicidal effect ([6]; dose 3.2 g/a): 4 (mortality of at least 70% and less than 90%); G: water foxtail, herbicidal effect ([8]; dose 3.2 g/a): 3 (mortality of at least 40% and less than 70%); E: giant foxtail, herbicidal effect ([9]; dose 3.2 g/a): 0 (mortality of less than 5% (almost ineffective)); M: posumbu knotweed, herbicidal effect ([10]; dose 3.2 g/a): 3 (mortality of at least 40% and less than 70%); K: redroot pigweed, herbicidal effect ([11]; dose 3.2 g/a): 0 (mortality of less than 5% (almost ineffective)); D: large crabgrass, herbicidal effect ([12]; dose 3.2 g/a): 0 (mortality of less than 5% (almost ineffective)); a: transplanted rice, effect on crop (evaluation scale 0-5) [30]: 0 (mortality of less than 5% (almost ineffective))"
